Reference: US20220370456A1, “COMBINATION THERAPIES COMPRISING SHP2 INHIBITORS AND EGFR TYROSINE KINASE INHIBITORS” (HUYABIO International, LLC, priority 2021, published 2022)
Read-outs that look alike come from different tables or passages of the source.

Experiments:
HCC827-ER1 cells = assay: Cell viability assay (CellTiter-Glo), cell proliferation; type: cell-based; conditions: for IC50: HCC827-ER1, read on Day 5, CellTiter-Glo, read-out: Absolute IC50
Description: (§1) Cell lines and maintenance: Both cell lines (HCC827-ER1 and NCI-H1975) used for in vitro and in vivo studies were supplied by Crown Biosciences cell bank. […] NCI-H1975 cells were maintained in RPMI medium supplemented with 10% heat inactivated fetal bovine serum+100 ug/mL Hygromyocin at 37° C. in an atmosphere of 5% CO2 in air. The tumor cells were routinely subcultured twice weekly. The cells growing in an exponential growth phase were used for the in vitro cell potency and in vivo efficacy studies.
(§2) Cell Viability Assay: For cell cytotoxicity assays, cells were plated in 96-well plates and plating densities were determined on the basis of Crown Biosciences Cell line Database. Cells were plated at 2000 cells/well. Twenty four hours after plating, cells were treated with inhibitors at the indicated compound concentrations. On Day 5, cells were lysed with CellTiter-Glo® Luminescent Cell Viability Assay reagent (Promega) and luminescence was read using the EnVision Multi-plate reader. To calculate IC50s, a dose-response curve is generated using a nonlinear regression model with a sigmoidal dose response. IC50s were automatically generated by GraphPad Prism 8.0. The formula of surviving rate is shown below:
(§3) The surviving rate (%)=((LumTest article−LumMedium control)/(LumNone treated−LumMedium control))×100

[1] = tested on: NCI-H1975 (L858R/T790M/C797S) cells; assay: as above; type: cell-based; conditions: for IC50: NCI-H1975 (L858R/T790M/C797S), read on Day 5, CellTiter-Glo, read-out: Absolute IC50
Description: as §1, §2, §3

HCC827-ER1 tumor = HCC827-ER1 tumor model, in vivo tumor volume; conditions: HCC827-ER1 tumors in female Balb/C Nude animals, during treatment, FIG. 2A-B
Description: Animals (6-8 weeks) were obtained from Shanghai Lingchang Biotechnology Co., Ltd (Shanghai, China) and were allowed to acclimate prior to tumor cell inoculation.
All cell lines were maintained in culture and cells in exponential growth phase were harvested and quantitated by cell counter before tumor inoculation. HCC827-ER1 tumor cells (5×10^7) in 0.1 ml of PBS mixed with Matrigel (1:1) inoculated into female Balb/C Nude animals, mean tumor approximately 325 mm^3 at the start of treatment.
The date of randomization and treatment initiation was denoted as day 0. Tumor volumes were measured twice per week in two dimensions using a caliper, and the volume will be expressed in mm^3 using the formula: V=(L×W×W)/2, where V is tumor volume, L is tumor length (the longest tumor dimension) and W is tumor width (the longest tumor dimension perpendicular to L). Dosing volume was 10 mL/kg/day. GH21005 were dissolved in HP-β-CD was dissolved with 200 ml of 50 mM sodium citrate (pH=4.2). Anti-PD-1 and Rat IgG2a were diluted in PBS.
Upon termination, tumors were collected 2 hours post last dose.

Row | IC50 (HCC827-ER1 cells; 120 h) | IC50 ([1]; Homo sapiens, 120 h) | Structure (SMILES) | IC50 (HCC827-ER1 cells) | IC50 [1] | potency in cell proliferation assay compared to TNO-155 and RMC-4550 (HCC827-ER1 cells; HCC827-ER1 cell model, FIG. 1A) | potency in cell proliferation assay compared to TNO-155 and RMC-4550 ([1]; NCI-H1975 cell model, FIG. 1B) | effect on tumor volume (HCC827-ER1 tumor)
1 |  |  | N.N.[Cl][Pt][Cl] [Cisplatin] | 7.17 µM | 10.3 µM |  |  | 
2 | 1.89 µM | > 10 µM | C[C@H]1OCC2(CCN(c3cnc(Sc4ccnc(N)c4Cl)c(N)n3)CC2)[C@H]1N [GH21001(TNO-155)] |  |  |  |  | 
3 | 0.08 µM | 0.96 µM | C[C@@H]1OCC2(CCN(c3cnc(Sc4cccc(NC(=O)c5c(O)nc6n(c5=O)CCCC6)c4Cl)cn3)CC2)[C@@H]1N [GH21005(HBI-2376), N-(3-((5-((3S,4S)-4-amino-3-methyl-2-oxa-8-azaspiro[4.5]decan-8-yl)pyrazin-2-yl)thio)-2-chlorophenyl)-2-hydroxy-4-oxo-6,7,8,9-tetrahydro-4H-pyrido[1,2-a]pyrimidine-3-carboxamide] |  |  | superior potency | superior potency | did not result in a reduction of tumor volume

Row | Structure (SMILES) | IC50 (HCC827-ER1 cells; 120 h) | IC50 ([1]; Homo sapiens, 120 h) | IC50 (HCC827-ER1 cells) | IC50 [1] | potency in cell proliferation assay compared to TNO-155 and RMC-4550 (HCC827-ER1 cells; HCC827-ER1 cell model, FIG. 1A) | potency in cell proliferation assay compared to TNO-155 and RMC-4550 ([1]; NCI-H1975 cell model, FIG. 1B) | effect on tumor volume (HCC827-ER1 tumor)
4 | C=CC(=O)Nc1cc(Nc2nccc(-c3cn(C)c4ccccc34)n2)c(OC)cc1N(C)CCN(C)C [Osimertinib] | 2.8 µM | […] |  |  |  |  | only a slight and temporary decrease in tumor volume, followed by growth in tumor volume
